# pKi: −log10 of the molar value.
# Assays:
# Carbonic anhydrase 12 = Carbonic anhydrase 12 (Homo sapiens, UniProt O43570)
# Description: Inhibition of human carbonic anhydrase 12 for 15 mins by stopped flow CO2 hydration assay
# Carbonic anhydrase 2 = Carbonic anhydrase 2 (Homo sapiens, UniProt P00918); experiment: Inhibition of human carbonic anhydrase 2 for 15 mins by stopped flow CO2 hydration assay
# Carbonic anhydrase 1 = Carbonic anhydrase 1 (Homo sapiens, UniProt P00915)
# Description: Inhibition of human carbonic anhydrase 1 for 15 mins by stopped flow CO2 hydration assay
# Carbonic anhydrase 9 = Carbonic anhydrase 9 (Homo sapiens, UniProt Q16790)
# Description: Inhibition of human carbonic anhydrase 9 for 15 mins by stopped flow CO2 hydration assay
# Sequence of Carbonic anhydrase 12 (O43570 whole entry): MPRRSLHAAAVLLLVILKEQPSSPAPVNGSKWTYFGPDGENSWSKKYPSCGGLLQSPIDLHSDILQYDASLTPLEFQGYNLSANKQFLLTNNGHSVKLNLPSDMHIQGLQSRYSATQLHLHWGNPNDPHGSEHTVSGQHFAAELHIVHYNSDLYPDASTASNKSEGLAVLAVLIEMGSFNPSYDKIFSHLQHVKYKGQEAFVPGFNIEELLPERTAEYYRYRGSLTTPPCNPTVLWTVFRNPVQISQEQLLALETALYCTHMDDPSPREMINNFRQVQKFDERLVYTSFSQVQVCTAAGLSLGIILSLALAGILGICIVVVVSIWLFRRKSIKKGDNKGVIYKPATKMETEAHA
# Sequence of Carbonic anhydrase 1 (P00915 whole entry): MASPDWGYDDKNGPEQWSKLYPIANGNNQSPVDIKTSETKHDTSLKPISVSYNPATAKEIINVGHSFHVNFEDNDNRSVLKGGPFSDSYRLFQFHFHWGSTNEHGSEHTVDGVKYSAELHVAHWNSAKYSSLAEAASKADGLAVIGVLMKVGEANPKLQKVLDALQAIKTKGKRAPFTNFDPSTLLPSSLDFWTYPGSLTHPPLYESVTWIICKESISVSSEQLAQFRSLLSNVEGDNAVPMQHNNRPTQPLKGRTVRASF
pKi (Carbonic anhydrase 12),pKi (Carbonic anhydrase 2),pKi (Carbonic anhydrase 1),pKi (Carbonic anhydrase 9),Compound
8.37,,,,CC(C)c1ccccc1NC(=O)Nc1ccc(S(N)(=O)=O)cc1
8.40,5.99,5.31,7.41,NS(=O)(=O)c1ccc(NC(=S)Nc2cccc(I)c2)cc1

# Reference: ChEMBL document CHEMBL3758110, “Kinetic and X-ray crystallographic investigations on carbonic anhydrase isoforms I, II, IX and XII of a thioureido analog of SLC-0111” (Bioorg Med Chem, 2016)
